# Data: publication PMC5729604, “Dual inhibitors of hepatitis C virus and hepatocellular carcinoma: design, synthesis and docking studies” (Future Science OA, 2017)
# Where two headings read alike, the source gives them in different places.
# Assays:
# [1] = system: human peripheral blood mononuclear cells (PBMCs); type: cell-based; details: 72 h
# Protocol: The safe compounds on RBCs (5a-g, 5i-l, 5p-r, 5v-w, 6b-g) were subjected to the in vitro cytotoxicity assay on human peripheral blood mononuclear cells (PBMCs). Viability of cells was measured using neutral red uptake assay as described by Borenfreund and Puerner to determine the concentrations of each compound that were not cytotoxic. The results were interpreted to calculate both the lethal concentration that kills 50% of cells (LD50) and the maximum safe concentration that causes 100% viability (LD0) of each compound using GraphPad InStat 3.0 software (Figure 6 & Supplementary Table 3).
# The PBMCs were isolated by density gradient centrifugation technique as described by Boyum. Blood samples were freshly collected into heparinized or ethylenediaminetetraacetic acid sterile tubes. Blood was diluted using equal volume of RPMI-1640 medium containing 25 mM HEPES and then layered over equal volume of Ficoll-Pague™ Plus (Fisher BioReagents™ Lymphocyte Separation Medium-LSM, PA, USA) and centrifuged (2000 r.p.m. for 30 min at acceleration and deceleration speeds zero & zero) at room temperature. The buffy mononuclear cell layer was collected using sterile Pasteur pipette into 50 ml sterile Falcon tube and washed twice in phosphate-buffered saline (Sigma-Aldrich) using centrifugation (1650 r.p.m. for 5 min). The isolated PBMCs viability was determined by hemocytometer count using the trypan blue exclusion method. The PBMCs were resuspended at 1 × 10^6 cells/ml in RPMI-1640 medium containing 25 mM HEPES supplemented with 10% heat-inactivated FBS. The appropriate number of cells was chosen to be 1 × 10^5 cells/well (100 μl of the prepared suspension).
# A 2 mg/ml stock solution of each compound was prepared in DMF and filtered using a 0.2 μM syringe filter. The desired concentrations (20, 10, 5, 2.5 and 1.25 μg/ml) were prepared using serial dilution in a 96-well plate. Compound wells were prepared by adding 100 μl of the previously prepared concentrations to a suspension of 1 × 10^5 PBMCs in 100 μl culture media. Parallel concentrations of the solvent were prepared to be used as controls. Control wells were prepared by adding 100 μl culture media to a suspension of 1 × 10^5 PBMCs in 100 μl culture media. Blank wells contained 200 μl of culture media only (without cells or compound solution). Each set of samples was pipetted in duplicate. The plate was then gently shaken then incubated at 37°C, 5% CO2 for 72 h.
# After incubation, neutral red assay was performed as described previously, and surviving cell fraction was calculated according to the previously mentioned equation. Also, the results were interpreted to calculate both the lethal concentration that kills 50% of cells (LD50) and the maximum safe concentration that cause 100% viability (LD0) of each compound using GraphPad InStat 3.0 software.
# [2] = system: human HCC cell line HepG2; experiment: cells; type: cell-based; details: for IC50: Homo sapiens, HepG2, 72 h, neutral red; for IC50 / (LD0) HepG2 / Safe doses (100% viability of HepG2) LD0: 72 h; for in vitro anticancer activity against HepG2, in words: IC50 <100 μg/ml potential, 100-1000 μg/ml moderate; for Selectivity index: LD50 on PBMC / IC50 on HepG2; for (LD0) HepG2 / Safe doses (100% viability of HepG2) LD0: human
# [3] = Table 1, read-out: IC50 (HepG2)
# [4] = Supplementary Table 2, read-out: Anticancer (HepG2) IC50
Compound,(LD0) PBMCs [1],LD0 [1],LD50 [1],LD50 (PBMCs) [1],"IC50 [2, 3]","in vitro anticancer activity against HepG2, in words [2]",Selectivity index [2],(LD0) HepG2 [2],Safe doses (100% viability of HepG2) LD0 [2],IC50 ([2]; read-out: IC50 against HepG2 cells),"IC50 [2, 4]",LD0 on PBMCs [1]
"COc1ccc(N2C(=O)C(=C3C(=O)Nc4ccccc43)SC2=NN=C(C)c2cc3ccccc3o2)cc1 [Compound 6c, 2-[1-(Benzofuran-2-yl)ethylidenehydrazono]-5-(2-oxoindolin-3-ylidene)-3-(4-methoxyphenyl)thiazolidin-4-one]",11.41 µg/mL,11.41 µg/mL,28.67 µg/mL,28.67 µg/mL,76.8 µg/mL,potential in vitro anticancer activity,0.37,3.40 µg/mL,3.40 µg/mL,,,
"CC(=NN=C1SC(=C2C(=O)Nc3ccccc32)C(=O)N1C1CCCCC1)c1cc2ccccc2o1 [Compound 6d, 2-[1-(Benzofuran-2-yl)ethylidenehydrazono]-5-(2-oxoindolin-3-ylidene)-3-cyclohexylthiazolidin-4-one]",5.21 µg/mL,5.21 µg/mL,14.32 µg/mL,14.32 µg/mL,34.3 µg/mL,potential in vitro anticancer activity,0.42,7.31 µg/mL,7.31 µg/mL,< 50 µg/mL,,
"CC(=NN=C1SC(=C2C(=O)Nc3ccccc32)C(=O)N1c1ccccc1)c1nc2ccccc2[nH]1 [Compound 6e, 2-[1-(1H-Benzimidazole-2-yl)ethylidenehydrazono]-5-(2-oxoindolin-3-ylidene)-3-phenylthiazolidin-4-one]",19.22 µg/mL,19.22 µg/mL,329.03 µg/mL,,,,,16.75 µg/mL,16.75 µg/mL,,110 µg/mL,
"CC(=NN=C1SC(=C2C(=O)Nc3ccccc32)C(=O)N1c1ccc(Cl)cc1)c1nc2ccccc2[nH]1 [Compound 6f, 2-[1-(1H-Benzimidazole-2-yl)ethylidenehydrazono]-5-(2-oxoindolin-3-ylidene)-3-(4-chlorophenyl)thiazolidin-4-one]",253.34 µg/mL,253.34 µg/mL,1369.42 µg/mL,,,,,35.33 µg/mL,35.33 µg/mL,,154 µg/mL,relatively high LD0 values
"COc1ccc(N2C(=O)C(=C3C(=O)Nc4ccccc43)SC2=NN=C(C)c2nc3ccccc3[nH]2)cc1 [Compound 6g, 2-[1-(1H-Benzimidazole-2-yl)ethylidenehydrazono]-5-(2-oxoindolin-3-ylidene)-3-(4-methoxyphenyl)thiazolidin-4-one]",14.41 µg/mL,14.41 µg/mL,136.76 µg/mL,,,,,18.62 µg/mL,18.62 µg/mL,,248 µg/mL,
